In US10189828B2, “1-methylpyrazole-piperazine compounds having multimodal activity against pain” (LABORATORIOS DEL DR. ESTEVE S.A., priority 2014, dated 2019):

tested on: human σ1 receptor and human μ-opioid receptor; experiment: μ and σ1 dual binding: human σ1 receptor radioligand assay ([3H](+)-pentazocine, transfected HEK-293 membranes) and human μ-opioid receptor radioligand assay ([3H]-DAMGO, transfected CHO-K1 membranes); parameters: key to μ and σ1 dual binding: +: Both Ki-μ and Ki-σ1>=500 nM; ++: One Ki<500 nM while the other Ki is >=500 nM; +++: Both Ki-μ and Ki-σ1<500 nM; ++++: Both Ki-μ and Ki-σ1<100 nM; conditions: not given

Structure (SMILES) | μ and σ1 dual binding | Ki
Cn1nccc1C(c1ccccc1)N1CCN(CCc2ccccn2)CC1 (stereo not drawn) [Example 1, 1-((1-Methyl-1H-pyrazol-5-yl)(phenyl)methyl)-4-(2-(pyridin-2-yl)ethyl)piperazine] | ++ | 
Cn1nccc1C(c1ccccc1)N1CCN(Cc2ccccc2)CC1 (stereo not drawn) [Example 2, 1-benzyl-4-((1-methyl-1H-pyrazol-5-yl)(phenyl)methyl)piperazine] | ++ | 
Cn1nccc1C(c1ccccc1)N1CCN(CCc2ccccc2)CC1 (stereo not drawn) [Example 3, 1-((1-methyl-1H-pyrazol-5-yl)(phenyl)methyl)-4-phenethylpiperazine] |  | < 0.1 µM
Cn1nccc1C(c1ccccn1)N1CCN(CCc2ccccc2)CC1 (stereo not drawn) [Example 4, 1-((1-methyl-1H-pyrazol-5-yl)(pyridin-2-yl)methyl)-4-phenethylpiperazine] | ++ | 
Cn1nccc1C(c1cccnc1)N1CCN(CCc2ccccc2)CC1 (stereo not drawn) [Example 5, 1-((1-methyl-1H-pyrazol-5-yl)(pyridin-3-yl)methyl)-4-phenethylpiperazine] | ++ | 
COc1cccc(C(c2ccnn2C)N2CCN(CCc3ccccc3)CC2)c1 (stereo not drawn) [Example 7, 1-((3-methoxyphenyl)(1-methyl-1H-pyrazol-5-yl)methyl)-4-phenethylpiperazine] |  | < 0.1 µM
COc1ccccc1C(c1ccnn1C)N1CCN(CCc2ccccc2)CC1 (stereo not drawn) [Example 8, 1-((2-methoxyphenyl)(1-methyl-1H-pyrazol-5-yl)methyl)-4-phenethylpiperazine] |  | < 0.5 µM
COc1ccc(C(c2ccnn2C)N2CCN(CCc3ccccc3)CC2)cc1 (stereo not drawn) [Example 9, 1-((4-methoxyphenyl)(1-methyl-1H-pyrazol-5-yl)methyl)-4-phenethylpiperazine] |  | < 0.5 µM
Cn1nccc1C(c1cccc(C(F)(F)F)n1)N1CCN(CCc2ccccc2)CC1 (stereo not drawn) [Example 10, 1-((1-methyl-1H-pyrazol-5-yl)(6-(trifluoromethyl)pyridin-2-yl)methyl)-4-phenethylpiperazine] | ++ | 
Cn1nccc1C(c1ccc(C(F)(F)F)nc1)N1CCN(CCc2ccccc2)CC1 (stereo not drawn) [Example 11, 1-((1-methyl-1H-pyrazol-5-yl)(6-(trifluoromethyl)pyridin-3-yl)methyl)-4-phenethylpiperazine] | ++ | 
Cn1nccc1C(c1ccc(F)cn1)N1CCN(CCc2ccccc2)CC1 (stereo not drawn) [Example 12, 1-((5-fluoropyridin-2-yl)(1-methyl-1H-pyrazol-5-yl)methyl)-4-phenethylpiperazine] |  | < 0.5 µM
Cn1nccc1C(c1cncc(F)c1)N1CCN(CCc2ccccc2)CC1 (stereo not drawn) [Example 13, 1-((5-fluoropyridin-3-yl)(1-methyl-1H-pyrazol-5-yl)methyl)-4-phenethylpiperazine] | ++ | 
Cn1nccc1C(c1ccc(C(F)(F)F)cn1)N1CCN(CCc2ccccc2)CC1 (stereo not drawn) [Example 14, 1-((1-methyl-1H-pyrazol-5-yl)(5-(trifluoromethyl)pyridin-2-yl)methyl)-4-phenethylpiperazine] | ++ | 
Cn1nccc1C(c1ncccc1F)N1CCN(CCc2ccccc2)CC1 (stereo not drawn) [Example 16, 1-((3-fluoropyridin-2-yl)(1-methyl-1H-pyrazol-5-yl)methyl)-4-phenethylpiperazine] | ++ | 
Cn1nccc1C(c1cccnc1C(F)(F)F)N1CCN(CCc2ccccc2)CC1 (stereo not drawn) [Example 17, 1-((1-methyl-1H-pyrazol-5-yl)(2-(trifluoromethyl)pyridin-3-yl)methyl)-4-phenethylpiperazine] |  | < 0.5 µM
Cn1nccc1C(c1ccc(Cl)cn1)N1CCN(CCc2ccccc2)CC1 (stereo not drawn) [Example 18, 1-((5-chloropyridin-2-yl)(1-methyl-1H-pyrazol-5-yl)methyl)-4-phenethylpiperazine] | ++ | 

Structure (SMILES) | μ and σ1 dual binding | Ki
Cn1nccc1C(c1cnccc1C(F)(F)F)N1CCN(CCc2ccccc2)CC1 (stereo not drawn) [Example 19, 1-((1-methyl-1H-pyrazol-5-yl)(4-(trifluoromethyl)pyridin-3-yl)methyl)-4-phenethylpiperazine] | ++ | 
Cn1nccc1C(c1ccncc1)N1CCN(CCc2ccccc2)CC1 (stereo not drawn) [Example 20, 1-((1-methyl-1H-pyrazol-5-yl)(pyridin-4-yl)methyl)-4-phenethylpiperazine] | ++ | 
COc1cccc(CCN2CCN(C(c3ccccc3)c3ccnn3C)CC2)c1 (stereo not drawn) [Example 21, 1-(3-Methoxyphenethyl)-4-((1-methyl-1H-pyrazol-5-yl)(phenyl)methyl)piperazine] |  | < 0.5 µM
Cn1nccc1C(c1ccccc1)N1CCN(CCc2ccccc2F)CC1 (stereo not drawn) [Example 22, 1-(2-fluorophenethyl)-4-((1-methyl-1H-pyrazol-5-yl)(phenyl)methyl)piperazine] |  | < 0.1 µM
Cn1nccc1C(c1ccccc1)N1CCN(CCc2ccc(F)cc2)CC1 (stereo not drawn) [Example 23, 1-(4-fluorophenethyl)-4-((1-methyl-1H-pyrazol-5-yl)(phenyl)methyl)piperazine] | ++ | 
Cn1nccc1C(c1ccc(F)cn1)N1CCN(CCc2ccccc2F)CC1 (stereo not drawn) [Example 26, 1-(2-fluorophenethyl)-4-((5-fluoropyridin-2-yl)(1-methyl-1H-pyrazol-5-yl)methyl)piperazine] | ++ | 
COc1cccc(CCN2CCN(C(c3ccc(F)cn3)c3ccnn3C)CC2)c1 (stereo not drawn) [Example 27, 1-((5-fluoropyridin-2-yl)(1-methyl-1H-pyrazol-5-yl)methyl)-4-(3-methoxyphenethyl)piperazine] | ++ | 
Cn1nccc1C(c1ccccc1)N1CCN(CCc2ccccc2O)CC1 (stereo not drawn) [Example 28, 2-(2-(4-((1-Methyl-1H-pyrazol-5-yl)(phenyl)methyl)piperazin-1-yl)ethyl)phenol] | ++ | 
Cn1nccc1C(c1cccc(O)c1)N1CCN(CCc2ccccc2)CC1 (stereo not drawn) [Example 29, 3-((1-methyl-1H-pyrazol-5-yl)(4-phenethylpiperazin-1-yl)methyl)phenol] |  | < 0.5 µM
Cn1nccc1C(c1ccccc1)N1CCN(CCc2cccc(O)c2)CC1 (stereo not drawn) [Example 30, 3-(2-(4-((1-methyl-1H-pyrazol-5-yl)(phenyl)methyl)piperazin-1-yl)ethyl)phenol] |  | < 0.1 µM
Cn1nccc1C(c1ccc(F)cn1)N1CCN(CCc2cccc(O)c2)CC1 (stereo not drawn) [Example 31, 3-(2-(4-((5-fluoropyridin-2-yl)(1-methyl-1H-pyrazol-5-yl)methyl)piperazin-1-yl)ethyl)phenol] | ++ | 
Cn1nccc1C(c1ccccc1)N1CCN(CCc2cccc(F)c2)CC1 (stereo not drawn) [Example 35, 1-(3-Fluorophenethyl)-4-((1-methyl-1H-pyrazol-5-yl)(phenyl)methyl)piperazine] |  | < 0.5 µM
Cn1nccc1C(c1ccccc1)N1CCN(CCc2ccncc2)CC1 (stereo not drawn) [Example 37, 1-((1-methyl-1H-pyrazol-5-yl)(phenyl)methyl)-4-(2-(pyridin-4-yl)ethyl)piperazine] | ++ | 
Cn1nccc1C(c1ccc(F)cn1)N1CCN(CCc2cccc(F)c2)CC1 (stereo not drawn) [Example 38, 1-(3-fluorophenethyl)-4-((5-fluoropyridin-2-yl)(1-methyl-1H-pyrazol-5-yl)methyl)piperazine] |  | < 0.5 µM
Cn1nccc1C(c1ccccc1)N1CCN(CC(O)c2ccccc2)CC1 (stereo not drawn) [Example 39, 2-(4-((1-Methyl-1H-pyrazol-5-yl)(phenyl)methyl)piperazin-1-yl)-1-phenylethanol] | ++ | 
Cn1nccc1C(c1ccccc1)N1CCN(CCc2ncccc2Cl)CC1 (stereo not drawn) [Example 41, 1-(2-(3-chloropyridin-2-yl)ethyl)-4-((1-methyl-1H-pyrazol-5-yl)(phenyl)methyl)piperazine] | ++ | 

same assay, conditions: one combined class for Ki-μ and Ki-σ1

Structure (SMILES) | Ki
COc1ccccc1CCN1CCN(C(c2ccccc2)c2ccnn2C)CC1 (stereo not drawn) [Example 6, 1-(2-methoxyphenethyl)-4-((1-methyl-1H-pyrazol-5-yl)(phenyl)methyl)piperazine] | ≥ 0.5 µM
Cn1nccc1C(c1ccc(F)cn1)N1CCN(CCc2ccccn2)CC1 (stereo not drawn) [Example 15, 1-((5-fluoropyridin-2-yl)(1-methyl-1H-pyrazol-5-yl)methyl)-4-(2-(pyridin-2-yl)ethyl)piperazine] | ≥ 0.5 µM
Cn1nccc1C(c1ccccc1)N1CCN(CCc2ccc(C(F)(F)F)nc2)CC1 (stereo not drawn) [Example 24, 1-((1-methyl-1H-pyrazol-5-yl)(phenyl)methyl)-4-(2-(6-(trifluoromethyl)pyridin-3-yl)ethyl)piperazine] | ≥ 0.5 µM
Cn1nccc1C(c1ccccc1)N1CCN(CCc2csc(NC(=O)OC(C)(C)C)n2)CC1 (stereo not drawn) [Example 25, tert-butyl 4-(2-(4-((1-methyl-1H-pyrazol-5-yl)(phenyl)methyl)piperazin-1-yl)ethyl)thiazol-2-ylcarbamate] | ≥ 0.5 µM
Cn1nccc1C(c1ccccc1)N1CCN(CCc2csc(N)n2)CC1 (stereo not drawn) [Example 32, 4-(2-(4-((1-Methyl-1H-pyrazol-5-yl)(phenyl)methyl)piperazin-1-yl)ethyl)thiazol-2-amine] | ≥ 0.5 µM
Cn1nccc1C(c1ccccc1)N1CCN(CCc2ncccc2F)CC1 (stereo not drawn) [Example 33, 1-(2-(3-Fluoropyridin-2-yl)ethyl)-4-((1-methyl-1H-pyrazol-5-yl)(phenyl)methyl)piperazine] | ≥ 0.5 µM
Cn1nccc1C(c1ccccc1)N1CCN(CCc2ccc(F)cn2)CC1 (stereo not drawn) [Example 34, 1-(2-(5-fluoropyridin-2-yl)ethyl)-4-((1-methyl-1H-pyrazol-5-yl)(phenyl)methyl)piperazine] | ≥ 0.5 µM
Cn1nccc1C(c1ccccc1)N1CCN(CCc2cccnc2)CC1 (stereo not drawn) [Example 36, 1-((1-methyl-1H-pyrazol-5-yl)(phenyl)methyl)-4-(2-(pyridin-3-yl)ethyl)piperazine] | ≥ 0.5 µM
Cn1nccc1C(c1ccccc1)N1CCN(CCc2cccc(N)n2)CC1 (stereo not drawn) [Example 40, 6-(2-(4-((1-Methyl-1H-pyrazol-5-yl)(phenyl)methyl)piperazin-1-yl)ethyl)pyridin-2-amine] | ≥ 0.5 µM
Cn1nccc1C(c1ccccc1)N1CCN(CCc2cccc(C(F)(F)F)n2)CC1 (stereo not drawn) [Example 42, 1-((1-methyl-1H-pyrazol-5-yl)(phenyl)methyl)-4-(2-(6-(trifluoromethyl)pyridin-2-yl)ethyl)piperazine] | ≥ 0.5 µM
